Data reported in the NIST ThermoML archive (doi:10.1016/j.fluid.2010.06.019).

Conditions: Liquid, Ebulliometric method (Recirculating still)

CCCCCCO [hexan-1-ol]
Conditions | vapor or sublimation pressure [kPa]
366.67 K | 8.323
372.64 K | 11.06
377.56 K | 13.87
381.8 K | 16.77
381.81 K | 16.77
386.17 K | 20.26
390.77 K | 24.54
390.78 K | 24.54
395.23 K | 29.35
399.57 K | 34.77
403.73 K | 40.7
407.98 K | 47.57
414.61 K | 60.2
420.99 K | 74.69
427.85 K | 93.19
427.9 K | 93.26
429.52 K | 98.12
429.54 K | 98.16
431.85 K | 105.46
432.25 K | 106.75
432.32 K | 106.98

CC(C)(C)CO [2,2-dimethyl-1-propanol]
Conditions | vapor or sublimation pressure [kPa]
345.9 K | 20.26
350 K | 24.53
353.97 K | 29.35
357.84 K | 34.76
361.57 K | 40.7
365.36 K | 47.56
371.31 K | 60.19
377 K | 74.65
383.15 K | 93.23
384.84 K | 98.94

CCCCCCCCCCCCCCO [1-tetradecanol]
Conditions | vapor or sublimation pressure [kPa]
479.42 K | 8.319
487.56 K | 11.05
494.5 K | 13.89
500.44 K | 16.78
506.63 K | 20.26
513.01 K | 24.53
513.07 K | 24.53
519.11 K | 29.35
519.18 K | 29.35

CCCCCCCO [heptan-1-ol]
Conditions | vapor or sublimation pressure [kPa]
382.3 K | 8.324
388.34 K | 11.05
388.36 K | 11.05
393.65 K | 13.89
393.67 K | 13.89
398 K | 16.77
402.68 K | 20.25
407.45 K | 24.53
407.46 K | 24.54
412.21 K | 29.34
412.22 K | 29.35
416.72 K | 34.76
416.78 K | 34.76
421.2 K | 40.69
425.69 K | 47.55
425.77 K | 47.57
432.77 K | 60.19
439.55 K | 74.66
446.78 K | 92.98
446.82 K | 93.13
446.87 K | 93.24
448.6 K | 98.12
448.63 K | 98.2
450.73 K | 104.37
452.84 K | 110.87
452.97 K | 111.28

CCCCCCCCO [octan-1-ol]
Conditions | vapor or sublimation pressure [kPa]
397.32 K | 8.355
403.71 K | 11.1
409.14 K | 13.95
413.79 K | 16.83
418.61 K | 20.33
418.62 K | 20.33
418.63 K | 20.33
423.7 K | 24.62
428.65 K | 29.45
433.49 K | 34.89
438.12 K | 40.83
438.14 K | 40.83
442.88 K | 47.73
450.34 K | 60.37
457.52 K | 74.88
465.25 K | 93.42
465.29 K | 93.54
